tested on: mouse; test: Oral bioavailability: in vivo orally active (audiogenic mouse test and/or MES test); details: not given
Procedure: The oral bioavailability was tested using the audiogenic mouse test (Audiogenic seizures, R. L. Collins; Chapter 14, pages: 347-372. In: Experimental Models of Epilepsy; By: Pupura, Penry, Tower, Woodbury, Walter, Raven Press, New York, 1972. Standard Book Number: 0-911216-26-X) and/or the MES test.

Row | SMILES | In vivo orally active
1 | CC(O)c1cc2c(=O)n(NS(C)(=O)=O)c(=O)[nH]c2cc1C(F)(F)F (stereo not drawn) [Compound A-1, N-[6-(1-Hydroxy-ethyl)-2,4-dioxo-7-trifluoromethyl-1,4-dihydro-2H-quinazolin-3-yl]-methanesulfonamide] | Yes
2 | COC(C)c1cc2c(=O)n(NS(C)(=O)=O)c(=O)[nH]c2cc1C(F)(F)F (stereo not drawn) [Compound A-2, N-[6-(1-Methoxy-ethyl)-2,4-dioxo-7-trifluoromethyl-1,4-dihydro-2H-quinazolin-3-yl]-methanesulfonamide] | Yes
3 | CCC(O)c1cc2c(=O)n(NS(C)(=O)=O)c(=O)[nH]c2cc1C(F)(F)F (stereo not drawn) [Compound A-3, N-[6-(1-Hydroxy-propyl)-2,4-dioxo-7-trifluoromethyl-1,4-dihydro-2H-quinazolin-3-yl]-methanesulfonamide] | Yes
4 | CC(C)OC(C)c1cc2c(=O)n(NS(C)(=O)=O)c(=O)[nH]c2cc1C(F)(F)F (stereo not drawn) [Compound A-4, N-[6-(1-Isopropoxy-ethyl)-2,4-dioxo-7-trifluoromethyl-1,4-dihydro-2H-quinazolin-3-yl]-methanesulfonamide] | Yes
5 | CCOC(C)c1cc2c(=O)n(NS(C)(=O)=O)c(=O)[nH]c2cc1C(F)(F)F (stereo not drawn) [Compound A-5, N-[6-(1-Ethoxy-ethyl)-2,4-dioxo-7-trifluoromethyl-1,4-dihydro-2H-quinazolin-3-yl]methanesulfonamide] | yes
6 | CCCOC(CC)c1cc2c(=O)n(NS(C)(=O)=O)c(=O)[nH]c2cc1C(F)(F)F (stereo not drawn) [Compound A-6, N-[2,4-Dioxo-6-(1-propoxy-propyl)-7-trifluoromethyl-1,4-dihydro-2H-quinazolin-3-yl]-methanesulfonamide] | Yes
7 | CCC(OC(C)C)c1cc2c(=O)n(NS(C)(=O)=O)c(=O)[nH]c2cc1C(F)(F)F (stereo not drawn) [Compound A-7, N-[6-(1-isopropoxy-propyl)-2,4-dioxo-7-trifluoromethyl-1,4-dihydro-2H-quinazolin-3-yl]-methanesulfonamide] | Yes
8 | CCOC(CC)c1cc2c(=O)n(NS(C)(=O)=O)c(=O)[nH]c2cc1C(F)(F)F (stereo not drawn) [Compound A-13, N-[6-(1-Ethoxy-propyl)-2,4-dioxo-7-trifluoromethyl-1,4-dihydro-2H-quinazolin-3-yl]-methanesulfonamide] | Yes
9 | CC(OC1CCCC1)c1cc2c(=O)n(NS(C)(=O)=O)c(=O)[nH]c2cc1C(F)(F)F (stereo not drawn) [Compound A-14, N-[6-(1-Cyclopentyloxy-ethyl)-2,4-dioxo-7-trifluoromethyl-1,4-dihydro-2H-quinazolin-3-yl]-methanesulfonamide] | yes
10 | CCCC(O)c1cc2c(=O)n(NS(C)(=O)=O)c(=O)[nH]c2cc1C(F)(F)F (stereo not drawn) [Compound A-15, N-[6-(1-Hydroxy-butyl)-2,4-dioxo-7-trifluoromethyl-1,4-dihydro-2H-quinazolin-3-yl]-methanesulfonamide] | Yes
11 | COCCC(O)c1cc2c(=O)n(NS(C)(=O)=O)c(=O)[nH]c2cc1C(F)(F)F (stereo not drawn) [Compound A-18, N-[6-(1-Hydroxy-3-methoxy-propyl)-2,4-dioxo-7-trifluoromethyl-1,4-dihydro-2H-quinazolin-3-yl]-methanesulfonamide] | Yes
12 | CS(=O)(=O)Nn1c(=O)[nH]c2cc(C(F)(F)F)c(C3CCCO3)cc2c1=O (stereo not drawn) [Compound B-2, N-[2,4-Dioxo-6-(tetrahydro-furan-2-yl)-7-trifluoromethyl-1,4-dihydro-2H-quinazolin-3-yl]-methanesulfonamide] | Yes
13 | COCCn1nccc1-c1cc2c(=O)n(NS(C)(=O)=O)c(=O)[nH]c2cc1C(C)C [Compound C-1, N-{7-Isopropyl-6-[2-(2-methoxy-ethyl)-2H-pyrazol-3-yl]-2,4-dioxo-1,4-dihydro-2H-quinazolin-3-yl}-methanesulfonamide] | yes
14 | CC(C)n1nccc1-c1cc2c(=O)n(NS(C)(=O)=O)c(=O)[nH]c2cc1C(F)(F)F [Compound C-2, N-[6-(2-Isopropyl-2H-pyrazol-3-yl)-2,4-dioxo-7-trifluoromethyl-1,4-dihydro-2H-quinazolin-3-yl]-methanesulfonamide] | Yes
15 | CC(C)n1nccc1-c1cc2c(=O)n(NS(C)(=O)=O)c(=O)[nH]c2cc1CF [Compound C-3, N-[7-Fluoromethyl-6-(2-isopropyl-2H-pyrazol-3-yl)-2,4-dioxo-1,4-dihydro-2H-quinazolin-3-yl]-methanesulfonamide] | Yes
16 | COCCn1nccc1-c1cc2c(=O)n(NS(C)(=O)=O)c(=O)[nH]c2cc1C(F)(F)F [Compound C-4, N-{6-[2-(2-Methoxy-ethyl)-2H-pyrazol-3-yl]-2,4-dioxo-7-trifluoromethyl-1,4-dihydro-2H-quinazolin-3-yl}-methanesulfonamide] | Yes
17 | CS(=O)(=O)Nn1c(=O)[nH]c2cc(C(F)(F)F)c(-c3ccnn3O)cc2c1=O [Compound C-5, N-[6-(2-Hydroxy-2H-pyrazol-3-yl)-2,4-dioxo-7-trifluoromethyl-1,4-dihydro-2H-quinazolin-3-yl]-methanesulfonamide] | Yes
18 | CCc1cc2[nH]c(=O)n(NS(C)(=O)=O)c(=O)c2cc1-c1ccnn1C(C)C [Compound C-6, N-[7-Ethyl-6-(2-isopropyl-2H-pyrazol-3-yl)-2,4-dioxo-1,4-dihydro-2H-quinazolin-3-yl]-methanesulfonamide] | yes
19 | CC(C)c1cc2[nH]c(=O)n(NS(C)(=O)=O)c(=O)c2cc1-c1ccnn1C(C)C [Compound C-8, N-[7-Isopropyl-6-(2-isopropyl-2H-pyrazol-3-yl)-2,4-dioxo-1,4-dihydro-2H-quinazolin-3-yl]-methanesulfonamide] | yes
20 | Cn1nccc1-c1cc2c(=O)n(NS(C)(=O)=O)c(=O)[nH]c2cc1C(F)F [Compound C-9, N-[7-Difluoromethyl-6-(2-methyl-2H-pyrazol-3-yl)-2,4-dioxo-1,4-dihydro-2H-quinazolin-3-yl]-methanesulfonamide] | Yes
21 | CC(C)n1nccc1-c1cc2c(=O)n(NS(C)(=O)=O)c(=O)[nH]c2cc1C(F)F [Compound C-10, N-[7-Difluoromethyl-6-(2-isopropyl-2H-pyrazol-3-yl)-2,4-dioxo-1,4-dihydro-2H-quinazolin-3-yl]-methanesulfonamide] | Yes
22 | CCc1cc2[nH]c(=O)n(NS(C)(=O)=O)c(=O)c2cc1-c1ccnn1C [Compound C-11, N-[7-Ethyl-6-(2-methyl-2H-pyrazol-3-yl)-2,4-dioxo-1,4-dihydro-2H-quinazolin-3-yl]-methanesulfonamide] | Yes
23 | CCc1cc2[nH]c(=O)n(NS(C)(=O)=O)c(=O)c2cc1-c1ccnn1CC [Compound C-12, N-[7-Ethyl-6-(2-ethyl-2H-pyrazol-3-yl)-2,4-dioxo-1,4-dihydro-2H-quinazolin-3-yl]-methanesulfonamide] | Yes
24 | Cn1nccc1-c1cc2c(=O)n(NS(C)(=O)=O)c(=O)[nH]c2cc1C(C)(F)F [Compound C-15, N-[7-(1,1-difluoro-ethyl)-6-(2-methyl-2H-pyrazol-3-yl)-2,4-dioxo-1,4-dihydro-2H-quinazolin-3-yl]-methanesulfonamide] | Yes
25 | CC(C)n1nccc1-c1cc2c(=O)n(NS(C)(=O)=O)c(=O)[nH]c2cc1C(C)(F)F [Compound C-16, N-[7-(1,1-difluoro-ethyl)-6-(2-isopropyl-2H-pyrazol-3-yl)-2,4-dioxo-1,4-dihydro-2H-quinazolin-3-yl]-methanesulfonamide] | Yes
26 | CC(F)c1cc2[nH]c(=O)n(NS(C)(=O)=O)c(=O)c2cc1-c1ccnn1C(C)C (stereo not drawn) [Compound C-17, N-[7-(1-fluoro-ethyl)-6-(2-isopropyl-2H-pyrazol-3-yl)-2,4-dioxo-1,4-dihydro-2H-quinazolin-3-yl]-methanesulfonamide] | Yes
27 | Cn1nccc1-c1cc2c(=O)n(NS(C)(=O)=O)c(=O)[nH]c2cc1C(F)(F)F [Compound C-18, N-[6-(2-Methyl-2H-pyrazol-3-yl)-2,4-dioxo-7-trifluoromethyl-1,4-dihydro-2H-quinazolin-3-yl]-methanesulfonamide] | Yes

tested on: OF1 mice; test: maximal electroshock test (MES Test); format: in vivo, mouse; details: p.o., 1 h, @ 20 (mg/kg)
Procedure: Compounds of the invention were tested in OF1 mice using the maximal electroshock test (MES Test) described in detail by Schmutz et al., Naunyn-Schmiedeberg's Arch Pharmacol 1990, 342, 61-66. Briefly, generalized tonic-clonic convulsions of the hind extremities were induced by passing electrical current through temporal electrodes (50 Hz, 18 mA, 0.2 s). […] 30 mg/kg carbamazepine was used as a positive control; mice were classified as protected by a compound If the duration of the seizure lasted only 3 second or less. Five mice were used for each treatment condition and the percentage of protected mice was used as readout (i.e. a compound could give 0%, 20%, 40%, 60%, 80% or 100% protection). […]
ED50 values (ED: effective dose) were calculated using GraphPad Prism, v4.02.

Row | SMILES | MES-Test (1 h, po) protection [% @ 20]
28 | Cn1nccc1-c1cc2c(=O)n(NS(C)(=O)=O)c(=O)[nH]c2cc1C(C)(F)F [Compound C-15, N-[7-(1,1-difluoro-ethyl)-6-(2-methyl-2H-pyrazol-3-yl)-2,4-dioxo-1,4-dihydro-2H-quinazolin-3-yl]-methanesulfonamide] | 80

same assay, conditions: p.o., 1 h, @ 25 (mg/kg)

Row | SMILES | MES-Test (1 h, po) protection [% @ 25]
29 | COCCn1nccc1-c1cc2c(=O)n(NS(C)(=O)=O)c(=O)[nH]c2cc1C(C)C [Compound C-1, N-{7-Isopropyl-6-[2-(2-methoxy-ethyl)-2H-pyrazol-3-yl]-2,4-dioxo-1,4-dihydro-2H-quinazolin-3-yl}-methanesulfonamide] | 40

same assay, conditions: p.o., 1 h, @ 50 (mg/kg)

Row | SMILES | MES-Test (1 h, po) protection [% @ 50]
30 | CCc1cc2[nH]c(=O)n(NS(C)(=O)=O)c(=O)c2cc1-c1ccnn1C(C)C [Compound C-6, N-[7-Ethyl-6-(2-isopropyl-2H-pyrazol-3-yl)-2,4-dioxo-1,4-dihydro-2H-quinazolin-3-yl]-methanesulfonamide] | 20
31 | CC(C)c1cc2[nH]c(=O)n(NS(C)(=O)=O)c(=O)c2cc1-c1ccnn1C(C)C [Compound C-8, N-[7-Isopropyl-6-(2-isopropyl-2H-pyrazol-3-yl)-2,4-dioxo-1,4-dihydro-2H-quinazolin-3-yl]-methanesulfonamide] | 40

same assay, conditions: p.o., pre-treatment time 1 h

Row | SMILES | MES-Test (1 h, po) ED50 [mg/kg]
32 | CS(=O)(=O)Nn1c(=O)[nH]c2cc(C(F)(F)F)c(C3CCCO3)cc2c1=O [B-2 (R), N-[2,4-Dioxo-6-(tetrahydro-furan-2-yl)-7-trifluoromethyl-1,4-dihydro-2H-quinazolin-3-yl]-methanesulfonamide] | 12.8
33 | CS(=O)(=O)Nn1c(=O)[nH]c2cc(C(F)(F)F)c(C3CCCO3)cc2c1=O [B-2 (S), N-[2,4-Dioxo-6-(tetrahydro-furan-2-yl)-7-trifluoromethyl-1,4-dihydro-2H-quinazolin-3-yl]-methanesulfonamide] | 33.2
